Data as given in patent publication US8192962B2, “Processes for detecting toxic substances” (Daikin Industries, Ltd., priority 2001, dated 2012).

Tested on: Mitochondria-located protein genes
Assay: DNA chip mRNA expression in yeast, mitochondria-located protein genes (Table 2)
Format: cell-based, Saccharomyces cerevisiae S288C
Conditions: cells incubated two hours with the chemical substance
How it was run: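 Chemical exposure: 2 h, log-phase S. cerevisiae S288C, YPD, 25° C., dose set to inhibit growth without death. Profiling: mRNA labeled by reverse transcription with Cy3- or Cy5-dUTP, hybridized to whole-genome array. Output: fluorescence ratio against untreated culture.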

## C=CC=O [(14), acrolein]
Yeast gene YAL039C
  The level of expressed mRNA in the presence of chemical substance/The level of expressed mRNA in the absence of chemical substance: 1.2
Yeast gene YBL022C
  The level of expressed mRNA in the presence of chemical substance/The level of expressed mRNA in the absence of chemical substance: 1.0
Yeast gene YBL030C
  The level of expressed mRNA in the presence of chemical substance/The level of expressed mRNA in the absence of chemical substance: 0.8
Yeast gene YBL038W
  The level of expressed mRNA in the presence of chemical substance/The level of expressed mRNA in the absence of chemical substance: 2.3
Yeast gene YBL099W
  The level of expressed mRNA in the presence of chemical substance/The level of expressed mRNA in the absence of chemical substance: 0.6
Yeast gene YBR003W
  The level of expressed mRNA in the presence of chemical substance/The level of expressed mRNA in the absence of chemical substance: 0.8
Yeast gene YBR044C
  The level of expressed mRNA in the presence of chemical substance/The level of expressed mRNA in the absence of chemical substance: 0.9
Yeast gene YBR091C
  The level of expressed mRNA in the presence of chemical substance/The level of expressed mRNA in the absence of chemical substance: 1.7
Yeast gene YBR122C
  The level of expressed mRNA in the presence of chemical substance/The level of expressed mRNA in the absence of chemical substance: 1.2
Yeast gene YBR185C
  The level of expressed mRNA in the presence of chemical substance/The level of expressed mRNA in the absence of chemical substance: 1.7
Yeast gene YBR221C
  The level of expressed mRNA in the presence of chemical substance/The level of expressed mRNA in the absence of chemical substance: 0.8
Yeast gene YBR251W
  The level of expressed mRNA in the presence of chemical substance/The level of expressed mRNA in the absence of chemical substance: 1.6
Yeast gene YBR282W
  The level of expressed mRNA in the presence of chemical substance/The level of expressed mRNA in the absence of chemical substance: 1.4
Yeast gene YCL057W
  The level of expressed mRNA in the presence of chemical substance/The level of expressed mRNA in the absence of chemical substance: 1.0
Yeast gene YCR046C
  The level of expressed mRNA in the presence of chemical substance/The level of expressed mRNA in the absence of chemical substance: 1.3
Yeast gene YCR083W
  The level of expressed mRNA in the presence of chemical substance/The level of expressed mRNA in the absence of chemical substance: 2.4
Yeast gene YDL067C
  The level of expressed mRNA in the presence of chemical substance/The level of expressed mRNA in the absence of chemical substance: 1.4
Yeast gene YDL181W
  The level of expressed mRNA in the presence of chemical substance/The level of expressed mRNA in the absence of chemical substance: 1.1
Yeast gene YDL198C
  The level of expressed mRNA in the presence of chemical substance/The level of expressed mRNA in the absence of chemical substance: 1.7
Yeast gene YDR079W
  The level of expressed mRNA in the presence of chemical substance/The level of expressed mRNA in the absence of chemical substance: 1.5
Yeast gene YDR178W
  The level of expressed mRNA in the presence of chemical substance/The level of expressed mRNA in the absence of chemical substance: 1.5
Yeast gene YDR231C
  The level of expressed mRNA in the presence of chemical substance/The level of expressed mRNA in the absence of chemical substance: 1.5
Yeast gene YDR258C
  The level of expressed mRNA in the presence of chemical substance/The level of expressed mRNA in the absence of chemical substance: 1.5
Yeast gene YDR298C
  The level of expressed mRNA in the presence of chemical substance/The level of expressed mRNA in the absence of chemical substance: 1.5
Yeast gene YDR347W
  The level of expressed mRNA in the presence of chemical substance/The level of expressed mRNA in the absence of chemical substance: 1.5
Yeast gene YDR377W
  The level of expressed mRNA in the presence of chemical substance/The level of expressed mRNA in the absence of chemical substance: 1.4
Yeast gene YDR529C
  The level of expressed mRNA in the presence of chemical substance/The level of expressed mRNA in the absence of chemical substance: 1.5
Yeast gene YEL024W
  The level of expressed mRNA in the presence of chemical substance/The level of expressed mRNA in the absence of chemical substance: 1.1
Yeast gene YEL039C
  The level of expressed mRNA in the presence of chemical substance/The level of expressed mRNA in the absence of chemical substance: 1.4
Yeast gene YER178W
  The level of expressed mRNA in the presence of chemical substance/The level of expressed mRNA in the absence of chemical substance: 0.9
Yeast gene YFL016C
  The level of expressed mRNA in the presence of chemical substance/The level of expressed mRNA in the absence of chemical substance: 0.8
Yeast gene YGL018C
  The level of expressed mRNA in the presence of chemical substance/The level of expressed mRNA in the absence of chemical substance: 1.2
Yeast gene YGL187C
  The level of expressed mRNA in the presence of chemical substance/The level of expressed mRNA in the absence of chemical substance: 0.9
Yeast gene YGL191W
  The level of expressed mRNA in the presence of chemical substance/The level of expressed mRNA in the absence of chemical substance: 1.6
Yeast gene YGR008C
  The level of expressed mRNA in the presence of chemical substance/The level of expressed mRNA in the absence of chemical substance: 1.3
Yeast gene YGR028W
  The level of expressed mRNA in the presence of chemical substance/The level of expressed mRNA in the absence of chemical substance: 1.2
Yeast gene YGR062C
  The level of expressed mRNA in the presence of chemical substance/The level of expressed mRNA in the absence of chemical substance: 1.2
Yeast gene YGR076C
  The level of expressed mRNA in the presence of chemical substance/The level of expressed mRNA in the absence of chemical substance: 2.3
Yeast gene YGR082W
  The level of expressed mRNA in the presence of chemical substance/The level of expressed mRNA in the absence of chemical substance: 0.9
Yeast gene YGR174C
  The level of expressed mRNA in the presence of chemical substance/The level of expressed mRNA in the absence of chemical substance: 1.6
Yeast gene YGR244C
  The level of expressed mRNA in the presence of chemical substance/The level of expressed mRNA in the absence of chemical substance: 1.2
Yeast gene YHR008C
  The level of expressed mRNA in the presence of chemical substance/The level of expressed mRNA in the absence of chemical substance: 1.6
Yeast gene YIL155C
  The level of expressed mRNA in the presence of chemical substance/The level of expressed mRNA in the absence of chemical substance: 1.3
Yeast gene YJL096W
  The level of expressed mRNA in the presence of chemical substance/The level of expressed mRNA in the absence of chemical substance: 2.1
Yeast gene YJL102W
  The level of expressed mRNA in the presence of chemical substance/The level of expressed mRNA in the absence of chemical substance: 1.5
Yeast gene YJL133W
  The level of expressed mRNA in the presence of chemical substance/The level of expressed mRNA in the absence of chemical substance: 0.7
Yeast gene YJL166W
  The level of expressed mRNA in the presence of chemical substance/The level of expressed mRNA in the absence of chemical substance: 1.9
Yeast gene YJL180C
  The level of expressed mRNA in the presence of chemical substance/The level of expressed mRNA in the absence of chemical substance: 1.4
Yeast gene YJR045C
  The level of expressed mRNA in the presence of chemical substance/The level of expressed mRNA in the absence of chemical substance: 0.5
Yeast gene YJR077C
  The level of expressed mRNA in the presence of chemical substance/The level of expressed mRNA in the absence of chemical substance: 0.7
